{"source": "patent US20230159532A1", "about": "“PARATHYROID HORMONE (PTH) RECEPTOR ANTAGONISTS AND USES THEREOF” (Crinetics Pharmaceuticals, Inc., priority 2021, published 2023)", "target": "T1, human PTHR1 receptor (Homo sapiens, UniProt Q03431)", "T1 construct": "purchased Eurofins HTS030M", "T1 sequence (Q03431 27-593)": "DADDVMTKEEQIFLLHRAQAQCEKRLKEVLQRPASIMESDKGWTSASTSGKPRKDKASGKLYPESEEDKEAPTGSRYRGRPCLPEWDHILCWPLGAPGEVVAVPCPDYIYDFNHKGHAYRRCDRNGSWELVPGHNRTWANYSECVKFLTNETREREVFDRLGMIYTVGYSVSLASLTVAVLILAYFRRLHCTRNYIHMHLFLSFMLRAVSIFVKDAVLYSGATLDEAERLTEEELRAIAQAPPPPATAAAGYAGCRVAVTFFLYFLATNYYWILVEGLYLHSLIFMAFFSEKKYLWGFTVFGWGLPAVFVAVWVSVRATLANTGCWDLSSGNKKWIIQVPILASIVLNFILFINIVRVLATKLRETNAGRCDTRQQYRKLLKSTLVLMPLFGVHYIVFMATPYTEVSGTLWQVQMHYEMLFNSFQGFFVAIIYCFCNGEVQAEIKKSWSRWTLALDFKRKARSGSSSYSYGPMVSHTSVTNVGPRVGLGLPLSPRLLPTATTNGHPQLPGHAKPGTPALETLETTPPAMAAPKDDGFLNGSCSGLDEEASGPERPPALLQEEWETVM", "experiment": "Competitive antagonist binding assay for hPTH-R1 (radioactive competition binding, SPA beads)", "settings": "human PTHR1 membranes, [125I]-[Nle8,18,Tyr34]-PTH(1-34) 0.2 nM, 90 minutes at room temperature; read-out: hPTHR1 Ki", "in_short": "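Human PTHR1 membranes on SPA beads incubated 90 min at room temperature with compound (typically 0-10,000 nM final) and 0.2 nM [125I]-[Nle8,18,Tyr34]-PTH(1-34) in HEPES buffer with MgCl2, CaCl2, BSA, Triton X-100 and protease inhibitors, pH 7.4. Scintillation signal read; Ki values derived.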", "data": [{"smiles": "CCCN1C(=O)N(c2c(F)cc(NCCNCCO)cc2F)c2cc(Cl)ccc2-c2cc(Cl)cnc21", "note": "[1-49, 4,13-dichloro-10-[2,6-difluoro-4-({2-[(2-hydroxyethyl)amino]ethyl}amino)phenyl]-8-propyl-6,8,10-triazatricyclo[9.4.0.0^2,7]pentadeca-1(11),2(7),3,5,12,14-hexaen-9-one]", "values": [{"measurement": "Ki", "result": "< 100", "unit": "nM"}]}, {"smiles": "CCN1C(=O)N(c2c(F)cc(NCCNCCCC(=O)O)cc2F)c2cc(Cl)ccc2-c2cccnc21", "note": "[1-6, 4-({2-[(4-{13-chloro-8-ethyl-9-oxo-6,8,10-triazatricyclo[9.4.0.0^2,7]pentadeca-1(11),2(7),3,5,12,14-hexaen-10-yl}-3,5-difluorophenyl)amino]ethyl}amino)butanoic acid]", "values": [{"measurement": "Ki", "result": "< 100", "unit": "nM"}]}, {"smiles": "CCN1C(=O)N(c2c(F)cc(NCCNCCNC)cc2F)c2cc(C#N)ccc2-c2cc(Cl)cnc21", "note": "[1-127, 4-chloro-10-{2,6-difluoro-4-[(2-{[2-(methylamino)ethyl]amino}ethyl)amino]phenyl}-8-ethyl-9-oxo-6,8,10-triazatricyclo[9.4.0.0^2,7]pentadeca-1(11),2(7),3,5,12,14-hexaene-13-carbonitrile]", "values": [{"measurement": "Ki", "result": "< 100", "unit": "nM"}]}, {"smiles": "CCN1C(=O)N(c2c(F)cc(NCCNCCO)cc2F)c2c(ccc(Cl)c2F)-c2cc(Cl)cnc21", "note": "[3-10, 4,13-dichloro-10-[2,6-difluoro-4-({2-[(2-hydroxyethyl)amino]ethyl}amino)phenyl]-8-ethyl-12-fluoro-6,8,10-triazatricyclo[9.4.0.0^2,7]pentadeca-1(11),2(7),3,5,12,14-hexaen-9-one]", "values": [{"measurement": "Ki", "result": "< 100", "unit": "nM"}]}, {"smiles": "C[C@@H](CO)NCCNc1cc(F)c(N2C(=O)N(C)c3ncc(Cl)cc3-c3ccc(C#N)cc32)c(F)c1", "note": "[1-205, 4-chloro-10-{2,6-difluoro-4-[(2-{[(2S)-1-hydroxypropan-2-yl]amino}ethyl)amino]phenyl}-8-methyl-9-oxo-6,8,10-triazatricyclo[9.4.0.0^2,7]pentadeca-1(11),2(7),3,5,12,14-hexaene-13-carbonitrile]", "values": [{"measurement": "Ki", "result": "< 100", "unit": "nM"}]}, {"smiles": "CCN1C(=O)N(c2c(F)cc(NCCN[C@@H](CO)CC(=O)O)cc2F)c2cc(C#N)ccc2-c2cc(Cl)cnc21", "note": "[1-202, (3R)-3-({2-[(4-{4-chloro-13-cyano-8-ethyl-9-oxo-6,8,10-triazatricyclo[9.4.0.0^2,7]pentadeca-1(11),2(7),3,5,12,14-hexaen-10-yl}-3,5-difluorophenyl)amino]ethyl}amino)-4-hydroxybutanoic acid]", "values": [{"measurement": "Ki", "result": "< 100", "unit": "nM"}]}, {"smiles": "CCN1C(=O)N(c2c(F)cc(NCCN[C@@H]3CC[C@H]3O)cc2F)c2cc(C#N)ccc2-c2cc(Cl)cnc21", "note": "[1-179, 4-chloro-10-{2,6-difluoro-4-[(2-{[(1R,2R)-2-hydroxycyclobutyl]amino}ethyl)amino]phenyl}-8-ethyl-9-oxo-6,8,10-triazatricyclo[9.4.0.0^2,7]pentadeca-1(11),2(7),3,5,12,14-hexaene-13-carbonitrile]", "values": [{"measurement": "Ki", "result": "< 100", "unit": "nM"}]}, {"smiles": "CCN1C(=O)N(c2c(F)cc(NCCNCCO)cc2F)c2cc(Cl)cnc2-c2cc(F)cnc21", "note": "[3-25, 5-chloro-8-[2,6-difluoro-4-({2-[(2-hydroxyethyl)amino]ethyl}amino)phenyl]-10-ethyl-14-fluoro-3,8,10,12-tetraazatricyclo[9.4.0.0^2,7]pentadeca-1(11),2(7),3,5,12,14-hexaen-9-one]", "values": [{"measurement": "Ki", "result": "< 100", "unit": "nM"}]}, {"smiles": "CCN1C(=O)N(c2c(F)cc(NCCNCCO)cc2F)c2cc(Cl)ccc2-c2c1ncc(Cl)c2C", "note": "[3-4, 4,13-dichloro-10-[2,6-difluoro-4-({2-[(2-hydroxyethyl)amino]ethyl}amino)phenyl]-8-ethyl-3-methyl-6,8,10-triazatricyclo[9.4.0.0^2,7]pentadeca-1(11),2(7),3,5,12,14-hexaen-9-one]", "values": [{"measurement": "Ki", "result": "< 100", "unit": "nM"}]}, {"smiles": "CN1C(=O)N(c2c(F)cc(NCCNCCCO)cc2F)c2cc(C#N)ccc2-c2cc(Cl)cnc21", "note": "[1-197, 4-chloro-10-[2,6-difluoro-4-({2-[(3-hydroxypropyl)amino]ethyl}amino)phenyl]-8-methyl-9-oxo-6,8,10-triazatricyclo[9.4.0.0^2,7]pentadeca-1(11),2(7),3,5,12,14-hexaene-13-carbonitrile]", "values": [{"measurement": "Ki", "result": "< 100", "unit": "nM"}]}, {"smiles": "CCN1C(=O)N(c2c(F)cc(NCCNC)cc2F)c2cc(C#N)ccc2-c2cc(F)cnc21", "note": "[1-81, 10-(2,6-difluoro-4-{[2-(methylamino)ethyl]amino}phenyl)-8-ethyl-4-fluoro-9-oxo-6,8,10-triazatricyclo[9.4.0.0^2,7]pentadeca-1(11),2(7),3,5,12,14-hexaene-13-carbonitrile]", "values": [{"measurement": "Ki", "result": "< 100", "unit": "nM"}]}, {"smiles": "CCN1C(=O)N(c2c(F)cc(NCCNCC(=O)O)cc2F)c2cc(C#N)ccc2-c2cc(C(F)(F)F)cnc21", "note": "[1-227, 2-{[2-({4-[13-cyano-8-ethyl-9-oxo-4-(trifluoromethyl)-6,8,10-triazatricyclo[9.4.0.0^2,7]pentadeca-1(11),2(7),3,5,12,14-hexaen-10-yl]-3,5-difluorophenyl}amino)ethyl]amino}acetic acid]", "values": [{"measurement": "Ki", "result": "< 100", "unit": "nM"}]}, {"smiles": "CCN1C(=O)N(c2c(F)cc(NCCNC[C@@H](O)c3ccccc3)cc2F)c2cc(C#N)ccc2-c2cc(Cl)cnc21", "note": "[1-239, 4-chloro-10-{2,6-difluoro-4-[(2-{[(2S)-2-hydroxy-2-phenylethyl]amino}ethyl)amino]phenyl}-8-ethyl-9-oxo-6,8,10-triazatricyclo[9.4.0.0^2,7]pentadeca-1(11),2(7),3,5,12,14-hexaene-13-carbonitrile]", "values": [{"measurement": "Ki", "result": "< 100", "unit": "nM"}]}, {"smiles": "CCN1C(=O)N(c2c(F)cc(NCCNCC#N)cc2F)c2cc(C#N)ccc2-c2cc(Cl)cnc21", "note": "[1-160, 4-chloro-10-[4-({2-[(cyanomethyl)amino]ethyl}amino)-2,6-difluorophenyl]-8-ethyl-9-oxo-6,8,10-triazatricyclo[9.4.0.0^2,7]pentadeca-1(11),2(7),3,5,12,14-hexaene-13-carbonitrile]", "values": [{"measurement": "Ki", "result": "100 to 1000", "unit": "nM"}]}, {"smiles": "CCN1C(=O)N(c2c(F)cc(NCCNC)cc2F)c2cc(C#N)cc(F)c2-c2cc(Cl)cnc21", "note": "[1-99, 4-chloro-10-(2,6-difluoro-4-{[2-(methylamino)ethyl]amino}phenyl)-8-ethyl-15-fluoro-9-oxo-6,8,10-triazatricyclo[9.4.0.0^2,7]pentadeca-1(11),2(7),3,5,12,14-hexaene-13-carbonitrile]", "values": [{"measurement": "Ki", "result": "< 100", "unit": "nM"}]}, {"smiles": "CNCCNc1cc(F)c(N2C(=O)N(C(C)C)c3ncc(F)cc3-c3c(C)cc(Cl)cc32)c(F)c1", "note": "[1-78, 13-chloro-10-(2,6-difluoro-4-{[2-(methylamino)ethyl]amino}phenyl)-4-fluoro-15-methyl-8-(propan-2-yl)-6,8,10-triazatricyclo[9.4.0.0^2,7]pentadeca-1(11),2(7),3,5,12,14-hexaen-9-one]", "values": [{"measurement": "Ki", "result": "< 100", "unit": "nM"}]}, {"smiles": "CCN1C(=O)N(c2c(F)cc(NCCN3CCC(O)C3)cc2F)c2cc(C#N)ccc2-c2cc(Cl)cnc21", "note": "(stereo not shown) [1-164, 4-chloro-10-(2,6-difluoro-4-{[2-(3-hydroxypyrrolidin-1-yl)ethyl]amino}phenyl)-8-ethyl-9-oxo-6,8,10-triazatricyclo[9.4.0.0^2,7]pentadeca-1(11),2(7),3,5,12,14-hexaene-13-carbonitrile]", "values": [{"measurement": "Ki", "result": "< 100", "unit": "nM"}]}, {"smiles": "CNCCNc1cc(F)c(N2C(=O)N(C)c3ncccc3-c3ccc(Cl)cc32)c(F)c1", "note": "[1-1, 13-chloro-10-(2,6-difluoro-4-{[2-(methylamino)ethyl]amino}phenyl)-8-methyl-6,8,10-triazatricyclo[9.4.0.0^2,7]pentadeca-1(11),2(7),3,5,12,14-hexaen-9-one]", "values": [{"measurement": "Ki", "result": "< 100", "unit": "nM"}]}, {"smiles": "CCN1C(=O)N(c2c(F)cc(NCCNCCNC(=O)OC)cc2F)c2cc(C#N)ccc2-c2cc(F)cnc21", "note": "[1-216, methyl N-[2-({2-[(4-{13-cyano-8-ethyl-4-fluoro-9-oxo-6,8,10-triazatricyclo[9.4.0.0^2,7]pentadeca-1(11),2(7),3,5,12,14-hexaen-10-yl}-3,5-difluorophenyl)amino]ethyl}amino)ethyl]carbamate]", "values": [{"measurement": "Ki", "result": "< 100", "unit": "nM"}]}, {"smiles": "CCN1C(=O)N(c2c(F)cc(NC[C@H]3COCCN3)cc2F)c2cc(C#N)ccc2-c2cc(Cl)cnc21", "note": "[1-147, 4-chloro-10-[2,6-difluoro-4-({[(3S)-morpholin-3-yl]methyl}amino)phenyl]-8-ethyl-9-oxo-6,8,10-triazatricyclo[9.4.0.0^2,7]pentadeca-1(11),2(7),3,5,12,14-hexaene-13-carbonitrile]", "values": [{"measurement": "Ki", "result": "< 100", "unit": "nM"}]}, {"smiles": "CCN1C(=O)N(c2ccc(NCCNCCO)cc2)c2cc(Cl)ccc2-c2cc(Cl)cnc21", "note": "[2-9, 4,13-dichloro-8-ethyl-10-[4-({2-[(2-hydroxyethyl)amino]ethyl}amino)phenyl]-6,8,10-triazatricyclo[9.4.0.0^2,7]pentadeca-1(11),2(7),3,5,12,14-hexaen-9-one]", "values": [{"measurement": "Ki", "result": "< 100", "unit": "nM"}]}, {"smiles": "CCN1C(=O)N(c2c(F)cc(N3CCC(NCCO)C3)cc2F)c2cc(C#N)ccc2-c2cc(Cl)cnc21", "note": "(stereo not shown) [1-182, 4-chloro-10-(2,6-difluoro-4-{3-[(2-hydroxyethyl)amino]pyrrolidin-1-yl}phenyl)-8-ethyl-9-oxo-6,8,10-triazatricyclo[9.4.0.0^2,7]pentadeca-1(11),2(7),3,5,12,14-hexaene-13-carbonitrile]", "values": [{"measurement": "Ki", "result": "< 100", "unit": "nM"}]}]}
